According to US20140308294A1, “Anti-IL-1R1 Inhibitors For Use in Cancer” (MERCK PATENT GMBH, priority 2011, published 2014):

Assays:
hVEGF = experiment: Serum hVEGF ELISA in NOD/SCID mice with CSC-xenograft tumors; assay type: in vivo, mouse; conditions: CRC day 76 and NSCLC day 91, vs vehicle
Method: (§1) This analysis was performed on serum collected from the tumor model studies described in FIG. 18. Serum analysis was performed using high-sensitivity ELISA assay kits obtained from R&D systems. A.C. Serum from 3 mice at day 76 (CRC) (blue) and at day 91 (NSCLC) (red) was analyzed for hIL8 and hVEGF serum levels. Results are shown as bar graphs representing the mean cytokine concentration in pg/mL+/−SD from n=3 mice/group.
(§2) Three mice from each study group were sacrificed at day 76 (CRC) or day 91 (NSCLC). The tumors were excised, dissociated into single cells, and viably cryopreserved. Serum was also collected for cytokine detection. For the remaining mice Kineret treatment was stopped and the mice were further monitored for tumor growth. When tumors reached ethical tumor-burden limits the mice were sacrificed and tumor cells and serum were collected. […] From all sacrificed mice we also collected and cryopreserved bone marrow cells from the femur and tibial bones for possible analyses.

[1] = system: primary NSCLC CSC-derived xenograft tumors; experiment: CSC-xenograft tumor growth, NSCLC model in NOD/SCID mice; assay type: in vivo, mouse; conditions: 5 or 10 mg daily s.c., 91 days
Method: (§3) CSC were FACS-enriched from primary tumor-derived NSCLC and CRC cell line cultures on the basis ALDH activity as determined by the Aldefluor assay. 10^4 cells/mouse were transplanted s.c. in NOD/SCID mice together with Matrigel. A Loading dose of 5 μg/mL Kineret (recombinant […], Amgen) was applied to the Matrigel and subsequent daily treatment s.c. with either 5 or 10 mg Kineret was performed beginning on day 1 post transplantation. Tumor volumes were monitored weekly and three mice from each group were sacrificed at day 76 for the CRC model (A.) and at day 91 for the NSCLC model (B.) for further analysis. For the remaining animals Kineret treatment was stopped and tumor progression was continually monitored. When tumors reached >2000 mm^3 mice were sacrificed. At time of sacrifice serum was collected along for cytokine analysis. A. Tumor growth curves in the CRC tumor model study and B. growth curves in the NSLCL model study. Curves represent mean tumor volume in mm3 from 10 mice/group; error bars are SEM The data shown for each model is representative of n=2 similar experiments.
(§4) Human cell cultures derived from primary tumors obtained from a CRC (FIG. 12A) and a NSCLC (FIG. 12B) patient were sorted for the Aldeflour-positive population using fluorescence activated cell sorting (FACS). […]
(§5) Tumor volume was monitored weekly for 76 days in the CRC model and for 91 days in the NSCLC model.

[2] = in vivo, sc; cited from earlier work
[3] = Tolerability in NOD/SCID mice of the xenograft studies; assay type: in vivo; conditions: 5 and 10 mg daily s.c.
From the text: Human cell cultures derived from primary tumors obtained from a CRC (FIG. 12A) and a NSCLC (FIG. 12B) patient were sorted for the Aldeflour-positive population using fluorescence activated cell sorting (FACS). Aldefluor is a marker of high aldehyde-dehydrogenase activity, which is associated with both normal stem cell and CSC phenotypes. The sorted aldefluor-positive (AF+) cells were suspended in Matrigel and injected subcutaneously at a very low cell number (2×10^4 cells/mouse) into NOD/SCID immune-deficient mice. The matrigel suspensions contained a Kineret loading dose of 5 μg/mL which corresponds to reported serum levels of Kineret after daily s.c. dosing. Starting 1 day after inoculation of the AF+ cells, mice were treated daily with 5 mg or 10 mg of Kineret (purchased from Biovitrum) or the drug vehicle. The administration route was s.c. as is standard for Kineret in the clinic.
as §5

hIL8 = experiment: Serum hIL8 ELISA in NOD/SCID mice with CSC-xenograft tumors; assay type: in vivo, mouse; conditions: CRC day 76 and NSCLC day 91, vs vehicle
Method: as §1, §2

[4] = system: primary CRC CSC-derived xenograft tumors; experiment: CSC-xenograft tumor growth, CRC model in NOD/SCID mice; assay type: in vivo, mouse; conditions: 5 or 10 mg daily s.c., 76 days
Method: as §3, §4, §5

For “Kineret: human IL1R-antagonist (IL1RA) marketed under the trade name Kineret, Amgen; approved for rheumatoid arthritis”, the “hVEGF levels in mouse serum” value (hVEGF) is listed as “did not alter”, the “inhibition of tumor growth” value [1] is listed as “response was only achieved with the higher dose of 10 mg/kg” and the “reported serum levels after daily s.c. dosing” value [2] is listed as 5 µg/mL. For the same substance, the tolerability [3] was “well tolerated”, the “hIL-8 levels in mouse serum” value (hIL8) was “reduced to undetectable levels” and the “inhibition of tumor growth” value [4] was “strong inhibition at both the 5 and 10 mg doses”.
